Experimental data published in ChEMBL document CHEMBL1140203, “cis-4-(Piperazin-1-yl)-5,6,7a,8,9,10,11,11a-octahydrobenzofuro[2,3-h]quinazolin-2-amine (A-987306), a new histamine H4R antagonist that blocks pain responses against carrageenan-induced hyperalgesia” (J Med Chem, 2008).

Assays:
[1] = target: 5-hydroxytryptamine receptor 2B (Homo sapiens, UniProt P41595); format: functional
Histamine H2 receptor = Histamine H2 receptor (Homo sapiens, UniProt P25021)
[2] = target: T1, Muscarinic acetylcholine receptor M5 (Homo sapiens, UniProt P08912)
T1 sequence (P08912 whole entry): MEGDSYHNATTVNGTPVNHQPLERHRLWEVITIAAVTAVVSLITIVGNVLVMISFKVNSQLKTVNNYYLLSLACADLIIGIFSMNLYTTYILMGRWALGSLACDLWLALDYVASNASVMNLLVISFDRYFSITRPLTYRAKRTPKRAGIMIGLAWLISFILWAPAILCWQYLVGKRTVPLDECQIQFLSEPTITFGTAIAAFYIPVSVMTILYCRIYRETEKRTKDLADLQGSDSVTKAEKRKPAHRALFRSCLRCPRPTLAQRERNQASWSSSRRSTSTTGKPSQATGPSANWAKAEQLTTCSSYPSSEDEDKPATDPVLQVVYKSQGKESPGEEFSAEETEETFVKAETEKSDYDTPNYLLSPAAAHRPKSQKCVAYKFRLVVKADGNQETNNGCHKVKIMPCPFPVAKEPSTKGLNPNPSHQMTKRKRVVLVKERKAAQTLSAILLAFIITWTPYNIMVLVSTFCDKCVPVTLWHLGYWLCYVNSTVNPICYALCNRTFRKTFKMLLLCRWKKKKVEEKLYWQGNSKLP

Histamine H4 receptor [3] = target: Histamine H4 receptor (Rattus norvegicus, UniProt Q91ZY1); assay: biochemical; format: cell-based, HEK293
Sequence of Histamine H4 receptor (Rattus norvegicus, UniProt Q91ZY1) (Q91ZY1 whole entry): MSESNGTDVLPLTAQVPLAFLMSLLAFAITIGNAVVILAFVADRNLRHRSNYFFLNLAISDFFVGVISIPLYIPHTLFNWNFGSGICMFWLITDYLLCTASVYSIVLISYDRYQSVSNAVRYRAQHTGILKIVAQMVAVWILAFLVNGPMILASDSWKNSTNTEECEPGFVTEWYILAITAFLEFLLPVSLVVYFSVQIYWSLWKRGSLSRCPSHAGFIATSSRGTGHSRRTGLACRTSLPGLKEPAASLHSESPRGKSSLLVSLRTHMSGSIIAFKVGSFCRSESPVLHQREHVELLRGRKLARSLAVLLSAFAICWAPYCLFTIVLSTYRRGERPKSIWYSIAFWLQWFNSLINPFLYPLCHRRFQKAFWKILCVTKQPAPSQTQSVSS

Mus musculus [4] = organism: Mus musculus; settings: CD-1(ICR), in vivo, ip, 0.3 umol/kg
in vitro = settings: Sprague-Dawley, rat, plasma
Mus musculus [5] = organism: Mus musculus; assay: animal or person; format: functional; settings: CD-1(ICR), ip
in vivo [6] = settings: Sprague-Dawley, rat, ip, 10 mg/kg
Histamine H3 receptor [7] = target: Histamine H3 receptor (Rattus norvegicus, UniProt Q9QYN8)
Sequence of Histamine H3 receptor (Rattus norvegicus, UniProt Q9QYN8) (Q9QYN8 whole entry): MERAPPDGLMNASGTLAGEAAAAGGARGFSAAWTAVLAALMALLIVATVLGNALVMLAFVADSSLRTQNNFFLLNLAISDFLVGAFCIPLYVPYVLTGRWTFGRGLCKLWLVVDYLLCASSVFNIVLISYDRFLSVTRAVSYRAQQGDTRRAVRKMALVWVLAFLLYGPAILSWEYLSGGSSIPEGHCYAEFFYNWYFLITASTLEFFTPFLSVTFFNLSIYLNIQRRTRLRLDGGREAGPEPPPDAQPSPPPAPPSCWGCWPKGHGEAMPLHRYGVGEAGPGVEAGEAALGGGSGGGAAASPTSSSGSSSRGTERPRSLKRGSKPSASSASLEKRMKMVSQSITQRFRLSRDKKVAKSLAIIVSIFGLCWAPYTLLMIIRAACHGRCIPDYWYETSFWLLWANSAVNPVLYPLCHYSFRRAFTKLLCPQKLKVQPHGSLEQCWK

in vivo [8] = settings: Sprague-Dawley, rat, ip, 10 mg/kg; remark: listed apart in the source
in vivo [9] = settings: Sprague-Dawley, rat, po, 10 mg/kg
in vivo [10] = settings: Sprague-Dawley, rat, ip, 10 mg/kg; remark: listed apart in the source
[11] = target: T2, 5-hydroxytryptamine receptor 2C (Homo sapiens, UniProt P28335)
T2 sequence (P28335 whole entry): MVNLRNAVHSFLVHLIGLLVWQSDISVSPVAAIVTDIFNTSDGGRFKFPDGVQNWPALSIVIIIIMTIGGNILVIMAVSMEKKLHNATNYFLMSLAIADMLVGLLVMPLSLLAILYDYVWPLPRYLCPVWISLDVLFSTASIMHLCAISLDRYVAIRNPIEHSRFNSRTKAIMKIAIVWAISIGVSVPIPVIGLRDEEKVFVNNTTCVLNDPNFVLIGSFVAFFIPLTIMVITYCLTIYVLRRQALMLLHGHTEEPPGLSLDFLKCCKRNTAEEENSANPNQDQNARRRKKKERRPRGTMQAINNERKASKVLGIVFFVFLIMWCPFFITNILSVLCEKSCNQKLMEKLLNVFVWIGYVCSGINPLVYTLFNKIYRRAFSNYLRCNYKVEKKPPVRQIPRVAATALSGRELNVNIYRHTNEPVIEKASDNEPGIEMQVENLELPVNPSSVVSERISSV

in vivo [12] = settings: Sprague-Dawley, rat, po, 10 mg/kg; remark: listed apart in the source
in vivo [13] = settings: Sprague-Dawley, rat, ip, 10 mg/kg; remark: listed apart in the source
[14] = target: Histamine H4 receptor (Rattus norvegicus) (UniProt Q91ZY1)
Sequence of Histamine H4 receptor (Rattus norvegicus) (Q91ZY1 whole entry): as the sequence (Q91ZY1 whole entry) above

in vivo [15] = settings: Sprague-Dawley, rat, po, 10 mg/kg; remark: listed apart in the source
Histamine H3 receptor [16] = target: Histamine H3 receptor (Homo sapiens, UniProt Q9Y5N1)
Sequence of Histamine H3 receptor (Homo sapiens, UniProt Q9Y5N1) (Q9Y5N1 whole entry): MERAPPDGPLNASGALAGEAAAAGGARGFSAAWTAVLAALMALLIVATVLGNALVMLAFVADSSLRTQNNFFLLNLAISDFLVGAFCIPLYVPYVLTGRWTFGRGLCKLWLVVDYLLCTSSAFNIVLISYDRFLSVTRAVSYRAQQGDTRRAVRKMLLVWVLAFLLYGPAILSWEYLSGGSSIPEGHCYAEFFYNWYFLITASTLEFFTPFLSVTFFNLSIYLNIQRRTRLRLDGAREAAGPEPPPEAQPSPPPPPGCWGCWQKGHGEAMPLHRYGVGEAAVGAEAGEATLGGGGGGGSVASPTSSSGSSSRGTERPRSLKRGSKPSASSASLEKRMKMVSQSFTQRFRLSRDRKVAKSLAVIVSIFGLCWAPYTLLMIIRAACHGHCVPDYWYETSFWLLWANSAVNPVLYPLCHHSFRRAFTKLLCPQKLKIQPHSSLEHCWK

Mus musculus [17] = organism: Mus musculus; format: functional, organism-based, BALB/c
[18] = target: T3, C-C chemokine receptor type 1 (Homo sapiens, UniProt P32246)
T3 sequence (P32246 whole entry): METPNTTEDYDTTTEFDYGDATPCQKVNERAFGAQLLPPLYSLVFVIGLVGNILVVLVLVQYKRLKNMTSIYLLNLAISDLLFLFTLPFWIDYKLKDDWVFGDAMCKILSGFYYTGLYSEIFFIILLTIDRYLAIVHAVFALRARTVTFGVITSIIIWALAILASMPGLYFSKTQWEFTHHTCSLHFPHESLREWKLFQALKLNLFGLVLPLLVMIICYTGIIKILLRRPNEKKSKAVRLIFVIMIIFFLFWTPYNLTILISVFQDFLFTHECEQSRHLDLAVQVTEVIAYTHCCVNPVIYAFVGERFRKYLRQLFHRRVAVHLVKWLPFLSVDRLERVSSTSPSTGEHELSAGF

Histamine H4 receptor [19] = target: T4, Histamine H4 receptor (Homo sapiens, UniProt Q9H3N8); assay: biochemical; format: cell-based, HEK293
T4 sequence (Q9H3N8 whole entry): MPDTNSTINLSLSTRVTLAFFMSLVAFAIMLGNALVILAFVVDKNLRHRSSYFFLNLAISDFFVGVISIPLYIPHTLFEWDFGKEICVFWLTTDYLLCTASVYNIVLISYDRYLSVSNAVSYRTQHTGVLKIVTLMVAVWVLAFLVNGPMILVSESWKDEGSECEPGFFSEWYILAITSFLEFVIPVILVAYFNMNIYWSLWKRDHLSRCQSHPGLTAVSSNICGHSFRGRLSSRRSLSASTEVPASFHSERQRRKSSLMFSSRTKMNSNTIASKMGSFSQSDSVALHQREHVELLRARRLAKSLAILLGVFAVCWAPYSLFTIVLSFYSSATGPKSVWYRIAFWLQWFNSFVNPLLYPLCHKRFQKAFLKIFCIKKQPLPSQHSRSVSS

Histamine H4 receptor [20] = target: T4, Histamine H4 receptor; settings: HEK293
Rattus norvegicus [21] = organism: Rattus norvegicus; settings: in vivo, ip, 100 umol/kg
Histamine H1 receptor = Histamine H1 receptor (Homo sapiens, UniProt P35367)
Sequence of Histamine H1 receptor (P35367 whole entry): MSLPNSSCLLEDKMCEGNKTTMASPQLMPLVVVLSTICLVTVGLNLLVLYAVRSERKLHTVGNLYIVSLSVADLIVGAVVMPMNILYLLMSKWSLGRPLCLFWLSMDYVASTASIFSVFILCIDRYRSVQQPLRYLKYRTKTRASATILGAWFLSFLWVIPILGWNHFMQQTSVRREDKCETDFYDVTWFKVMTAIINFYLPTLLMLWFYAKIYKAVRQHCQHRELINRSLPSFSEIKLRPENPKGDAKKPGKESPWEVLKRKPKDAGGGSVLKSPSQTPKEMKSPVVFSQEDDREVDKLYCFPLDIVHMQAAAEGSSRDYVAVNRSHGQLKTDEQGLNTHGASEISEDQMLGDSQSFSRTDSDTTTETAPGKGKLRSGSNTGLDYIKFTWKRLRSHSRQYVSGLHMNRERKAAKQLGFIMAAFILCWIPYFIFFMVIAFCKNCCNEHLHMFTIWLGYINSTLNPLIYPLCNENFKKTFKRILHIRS

Rattus norvegicus [22] = organism: Rattus norvegicus; settings: in vivo, ip, 30 umol/kg
[23] = target: T5, Histamine H4 receptor (Mus musculus) (UniProt Q91ZY2)
T5 sequence (whole entry): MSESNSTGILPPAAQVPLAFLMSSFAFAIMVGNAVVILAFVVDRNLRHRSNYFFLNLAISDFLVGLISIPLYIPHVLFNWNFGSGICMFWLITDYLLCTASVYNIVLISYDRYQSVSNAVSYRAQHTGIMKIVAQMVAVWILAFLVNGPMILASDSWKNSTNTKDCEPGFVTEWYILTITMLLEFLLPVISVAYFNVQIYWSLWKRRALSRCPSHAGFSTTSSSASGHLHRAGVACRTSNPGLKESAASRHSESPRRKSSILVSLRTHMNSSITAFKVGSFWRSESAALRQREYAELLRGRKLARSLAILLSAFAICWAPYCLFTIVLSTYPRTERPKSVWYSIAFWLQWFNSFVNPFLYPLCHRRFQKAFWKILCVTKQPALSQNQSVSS

in vivo [24] = settings: Sprague-Dawley, rat, po, 10 mg/kg; remark: listed apart in the source
Vasopressin V1a receptor = Vasopressin V1a receptor (Homo sapiens, UniProt P37288)
Sequence of Vasopressin V1a receptor (P37288 whole entry): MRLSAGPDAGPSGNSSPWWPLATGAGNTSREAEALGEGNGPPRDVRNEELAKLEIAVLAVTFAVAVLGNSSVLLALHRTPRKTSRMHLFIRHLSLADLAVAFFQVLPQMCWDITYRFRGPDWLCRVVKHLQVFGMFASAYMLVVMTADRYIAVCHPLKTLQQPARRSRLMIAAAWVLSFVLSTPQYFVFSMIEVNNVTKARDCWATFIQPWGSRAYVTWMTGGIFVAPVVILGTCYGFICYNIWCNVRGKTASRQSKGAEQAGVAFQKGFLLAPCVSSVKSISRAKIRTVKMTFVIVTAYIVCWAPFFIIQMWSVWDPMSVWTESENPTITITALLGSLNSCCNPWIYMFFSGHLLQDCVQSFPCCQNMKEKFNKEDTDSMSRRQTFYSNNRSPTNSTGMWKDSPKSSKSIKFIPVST

Rattus norvegicus [25] = organism: Rattus norvegicus; assay: animal or person; format: functional; settings: ip
Substance-K receptor = target: T6, Substance-K receptor (Homo sapiens, UniProt P21452)
T6 sequence (P21452 whole entry): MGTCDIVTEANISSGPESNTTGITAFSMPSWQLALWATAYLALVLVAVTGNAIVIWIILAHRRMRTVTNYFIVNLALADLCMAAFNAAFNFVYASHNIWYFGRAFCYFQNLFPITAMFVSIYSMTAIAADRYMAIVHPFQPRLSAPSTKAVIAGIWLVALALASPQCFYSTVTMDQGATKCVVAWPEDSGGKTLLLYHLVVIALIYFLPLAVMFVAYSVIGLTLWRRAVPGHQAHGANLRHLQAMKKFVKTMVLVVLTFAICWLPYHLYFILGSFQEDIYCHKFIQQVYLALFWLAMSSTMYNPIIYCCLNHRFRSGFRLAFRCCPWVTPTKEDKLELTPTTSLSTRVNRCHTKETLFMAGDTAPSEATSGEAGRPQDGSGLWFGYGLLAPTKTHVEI

[26] = target: Small conductance calcium-activated potassium channel protein 1 (Homo sapiens, UniProt Q92952)
Sequence of Small conductance calcium-activated potassium channel protein 1 (Q92952 whole entry): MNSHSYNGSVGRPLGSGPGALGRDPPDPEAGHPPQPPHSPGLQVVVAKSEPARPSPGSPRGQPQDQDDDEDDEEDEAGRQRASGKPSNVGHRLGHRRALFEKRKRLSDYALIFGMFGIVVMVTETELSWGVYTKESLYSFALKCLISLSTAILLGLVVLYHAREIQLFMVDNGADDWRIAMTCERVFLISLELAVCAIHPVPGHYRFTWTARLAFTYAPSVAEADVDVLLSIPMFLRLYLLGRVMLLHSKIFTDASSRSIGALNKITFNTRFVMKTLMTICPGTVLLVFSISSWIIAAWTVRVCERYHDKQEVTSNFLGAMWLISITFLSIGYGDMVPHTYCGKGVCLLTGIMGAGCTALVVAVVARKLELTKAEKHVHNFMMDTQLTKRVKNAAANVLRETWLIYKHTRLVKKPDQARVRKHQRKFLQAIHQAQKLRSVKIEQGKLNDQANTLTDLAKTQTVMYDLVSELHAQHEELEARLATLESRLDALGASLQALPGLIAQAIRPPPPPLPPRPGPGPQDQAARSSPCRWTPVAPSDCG

Thromboxane A2 receptor = target: T7, Thromboxane A2 receptor (Homo sapiens, UniProt P21731)
T7 sequence (P21731 whole entry): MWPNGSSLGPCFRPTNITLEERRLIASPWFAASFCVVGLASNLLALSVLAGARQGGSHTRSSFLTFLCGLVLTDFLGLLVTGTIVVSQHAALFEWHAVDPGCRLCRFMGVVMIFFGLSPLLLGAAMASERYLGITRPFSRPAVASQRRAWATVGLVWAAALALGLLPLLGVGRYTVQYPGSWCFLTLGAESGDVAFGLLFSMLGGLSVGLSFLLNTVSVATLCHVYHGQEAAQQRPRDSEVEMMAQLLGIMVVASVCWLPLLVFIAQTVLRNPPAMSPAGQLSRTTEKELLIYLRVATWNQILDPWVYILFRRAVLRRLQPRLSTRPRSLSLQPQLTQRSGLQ

[27] = target: T2, 5-hydroxytryptamine receptor 2C; remark: listed apart in the source

Sequence of Histamine H2 receptor (P25021 whole entry): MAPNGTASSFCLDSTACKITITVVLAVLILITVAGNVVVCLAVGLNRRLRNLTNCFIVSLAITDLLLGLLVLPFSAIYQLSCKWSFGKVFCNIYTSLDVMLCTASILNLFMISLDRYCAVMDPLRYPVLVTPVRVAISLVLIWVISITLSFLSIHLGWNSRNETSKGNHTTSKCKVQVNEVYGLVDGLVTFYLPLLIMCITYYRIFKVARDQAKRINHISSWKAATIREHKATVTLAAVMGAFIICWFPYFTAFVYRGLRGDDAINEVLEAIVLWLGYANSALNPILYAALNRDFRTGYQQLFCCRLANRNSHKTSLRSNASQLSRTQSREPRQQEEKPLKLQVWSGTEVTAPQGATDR
Sequence of 5-hydroxytryptamine receptor 2B (P41595 whole entry): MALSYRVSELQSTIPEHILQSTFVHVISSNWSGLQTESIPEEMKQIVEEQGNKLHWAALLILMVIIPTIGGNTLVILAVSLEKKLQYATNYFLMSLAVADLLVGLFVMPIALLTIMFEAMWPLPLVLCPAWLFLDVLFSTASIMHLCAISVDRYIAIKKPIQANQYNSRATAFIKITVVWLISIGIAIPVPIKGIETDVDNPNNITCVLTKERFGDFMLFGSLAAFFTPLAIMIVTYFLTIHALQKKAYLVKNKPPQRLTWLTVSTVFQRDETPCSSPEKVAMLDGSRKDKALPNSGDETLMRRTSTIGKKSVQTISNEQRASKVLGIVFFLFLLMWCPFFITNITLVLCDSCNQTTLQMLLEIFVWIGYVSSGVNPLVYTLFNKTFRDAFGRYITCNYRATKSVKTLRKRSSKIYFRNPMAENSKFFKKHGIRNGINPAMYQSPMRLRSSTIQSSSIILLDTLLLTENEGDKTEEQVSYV

COc1cc(CC(C)N)c(OC)cc1I (racemic)
IC50 [1]: 3.5 nM
Ki [1]: 3.5 nM

CN1CCN(C(=O)c2cc3cc(Cl)ccc3[nH]2)CC1 [JNJ-7777120]
Ki (Histamine H2 receptor): > 8510 nM

C[N+]1(C)CCC(OC(=O)C(c2ccccc2)c2ccccc2)CC1 [4-DAMP]
IC50 [2]: 0.83 nM
Ki [2]: 0.42 nM

Nc1nc2c(c(N3CCNCC3)n1)CCC1=C2[C@@H]2CCCC[C@@H]2O1 (relative stereo)
Ki (Histamine H4 receptor [3]): 3.39 nM
Cp (Mus musculus [4]): 15 ng/mL
fraction unbound (in vitro): 0.41
ED50 (Mus musculus [5]): 0.36 µmol/kg
Cmax (in vivo [6]): 1730 nM
Ki (Histamine H3 receptor [7]): 13.5 nM
half-life (in vivo [8]): 4.7 h
Tmax (in vivo [9]): 1.5 h
bioavailability (in vivo [10]): 72%
IC50 [11]: 11700 nM
half-life (in vivo [12]): 3.7 h
Tmax (in vivo [13]): 0.25 h
pKb [14]: 8.3
bioavailability (in vivo [15]): 26%
Ki (Histamine H3 receptor [16]): 933 nM
IC50 (Mus musculus [17]): 125 µmol/kg
IC50 [18]: 0.087 nM
Ki [18]: 0.043 nM
Ki (Histamine H4 receptor [19]): 5.75 nM
pKb (Histamine H4 receptor [20]): 8.33
Cp (Rattus norvegicus [21]): 2900 ng/mL
Ki (Histamine H1 receptor): 3550 nM
Cp (Rattus norvegicus [22]): 610 ng/mL
pKb [23]: 8.2
Ki (Histamine H2 receptor): > 9120 nM
Cmax (in vivo [24]): 300 nM
IC50 (Vasopressin V1a receptor): 3.9 nM
Ki (Vasopressin V1a receptor): 2.4 nM
ED50 (Rattus norvegicus [25]): 42 µmol/kg
IC50 (Substance-K receptor): 5.7 nM
Ki (Substance-K receptor): 3.1 nM

CC(C)C[C@@H]1NC(=O)[C@H](C)NC(=O)[C@H]([C@@H](C)O)NC(=O)[C@H](CCC(=O)O)NC(=O)[C@@H]2CCCN2C(=O)[C@H](C)NC(=O)[C@H](CCCCN)NC(=O)[C@@H]2CSSC[C@@H](C(=O)N[C@@H](CCC(N)=O)C(=O)N[C@@H](CCC(N)=O)C(=O)N[C@@H](Cc3cnc[nH]3)C(N)=O)NC(=O)[C@H](CCCNC(=N)N)NC(=O)[C@H](CCCNC(=N)N)NC(=O)[C@H](C)NC(=O)[C@H](CSSC[C@H](N)C(=O)N[C@@H](CC(N)=O)C(=O)N2)NC1=O [APAMIN]
IC50 [26]: 0.014 nM
Ki [26]: 0.0068 nM

CCCCC[C@H](O)/C=C/[C@H]1C2COC(C2)[C@@H]1C/C=C\CCCC(=O)O (some centres not stated)
IC50 (Thromboxane A2 receptor): 37 nM
Ki (Thromboxane A2 receptor): 16 nM

COc1cc(OC)c(C(=O)CCCCN2CCC3(CC2)NC(=O)NC3=O)cc1NS(=O)(=O)c1ccc(C(F)(F)F)cc1 [RS-102,221]
IC50 [27]: 8.3 nM
Ki [27]: 3.9 nM
